In patent publication US10973822B2, “Combination therapy for treatment of hematological cancers and solid tumors” (Celgene Corporation, priority 2015, dated 2021):

Legend:
[1] = tested on: anti-CD3/CD28 stimulated PBMCs (NK, NKT, CD4+ and CD8+ T cell); assay: Lymphocyte proliferation assay; type: cell-based, human; details: combination of Compound A with nivolumab, 6 days
Experimental: To further explore immune activation resulting from the combination of Compound A and nivolumab, proliferation of immune cell subsets including NK, NKT, CD4+ and CD8+ T cell was examined. CellTrace Violet (Thermo Fisher) labeled PBMCs from healthy volunteers were treated with Compound A and nivolumab in combination or as single agent, and stimulated with soluble anti-CD3/CD28 (Stem Cell Technologies) for 6 days. Cells were collected and flow cytometry was performed to assay for surface expression of CD3, CD4, CD8, and CD56 (BD Biosciences). Dead cells were excluded by live/dead fixable stain (ThermoFisher Scientific). Prior to flow cytometry, CountBright beads (Thermo Fisher Scientific) were added to examine changes in absolute cell count.

[2] = tested on: CD4+ and CD8+ T cells and autologous CLL tumor cells; assay: Immunological synapse bioassay in CLL cells; type: cell-based, human
[3] = tested on: JHH4, a PD-L1 positive HCC cell line; assay: PBMC mediated natural cytotoxicity against JHH4; type: cell-based, human; details: p<0.05, FIG. 6
SEB-stimulated PBMC = assay: 5 day SEB-stimulated PBMC assay (IL-2 ELISA); type: cell-based, human; details: for IL-2 secretion compared to either single agent: 5 days
Experimental: In one exemplary study, PBMC cells were pretreated with Compound A for 1 hour, then SEB/CPI were added for 5 days, IL-2 elisa on day 5. The results are shown in FIG. 2A (Compound A in combination with nivolumab), FIG. 2B (Compound A in combination with a surrogate commercial anti-PD-1 antibody from BioLegend), and FIG. 2C (Compound A in combination with a surrogate commercial anti-PD-L1 antibody from BioLegend).
In another exemplary study, Compound A treated PBMCs from healthy donors were stimulated with 10 pg/ml of SEB (ThermoFisher Scientific) followed by addition of nivolumab (obtained from Blue Door Pharma), anti-PD1 (anti-human CD279 clone EH12.2H7, obtained from BioLegend, Cat #329926, lot B194623), and anti-PD-L1 (anti-human CD274 (B7-H1) clone 29E.2A3, obtained from BioLegend, Cat #329716, lot B197650) blocking antibodies. After 5 days of incubation, supernatants were collected and an ELISA for IL-2 (BD Biosciences) was utilized to examine secreted IL-2.

[4] = tested on: LPS-stimulated hPBMC and human whole blood; assay: Cytokine modulation in LPS-stimulated hPBMC and human whole blood; type: cell-based
Text: TNF-α is an inflammatory cytokine produced by macrophages and monocytes during acute inflammation. TNF-α is responsible for a diverse range of signaling events within cells. TNF-α may play a pathological role in cancer. Without being limited by theory, one of the biological effects exerted by Compound A is the reduction of synthesis of TNF-α. Compound A enhances the degradation of TNF-α mRNA.

[5] = tested on: CD4+ T cells co-cultured with monocyte-derived DC; assay: Mixed lymphocyte reaction (MLR) assay; type: cell-based, human; details: for IL-2 secretion compared to either single agent: 48 hours
Experimental: In one exemplary study, monocytes were isolated from buffy coat using Easy Sep kit (StemCell Technologies) and cultured in RPMI supplemented with 10% FBS, IL-4, and GM-CSF for 7 days. On day 7, CD4+ T cells were isolated from leukopak using Easy Sep kit (StemCell Technologies) and co-cultured with Monocyte-derived DC (MDC) using a 10:1 ratio. Secreted IL-2 was quantified by ELISA at 48 hours and IFNγ was measured at 5 days. Throughout the experiment, surface marker expression was determined by flow cytometry. The results are shown in FIG. 3A (IL-2, 10 nM Compound A), FIG. 3B (IL-2, 100 nM Compound A), and FIG. 4A (IFNγ, 100 nM). Compound A in combination with nivolumab enhanced IL-2 and IFNγ secretion in the mixed lymphocyte reaction. In another exemplary study, monocytes were isolated from healthy donor buffy coat (Stem Cell Technologies) and cultured with 500 U/ml IL-4 and 250 U/ml GM-CSF (R&D Systems) for 7 days until the monocytes differentiated into dendritic cells (DC) by culturing with media containing a cocktail of IL-4 and GM-CSF for 7 days. On day 7, CD4^+ T cells from a different healthy donor were isolated from a leukopak (Stem Cell Technologies). The DC and T cells were mixed at a ratio of 1:10 and co-cultured for 5 days with Compound A and nivolumab (obtained from Blue Door Pharma) or anti-PD-L1 (anti-human CD274 (B7-H1) clone 29E.2A3, obtained from BioLegend, Cat #329716, lot B197650). Supernatants were harvested for IL-2 ELISA at 48 hours (R&D Systems) and for IFNγ ELISA at 5 days (Thermo Fisher Scientific). Monocytes, DC, T cells, and mixed lymphocytes were stained for flow cytometric analysis of CD14, HLA-DR, CD80, CD86, CD83, CD40, CD3, PD-1, PD-L1 surface expression markers throughout the duration of the experiment.

[6] = tested on: murine liver cancer cell line (BNL-1MEA); assay: Orthotopic HCC (liver cancer) model; type: in vivo, mice; details: Compound A in combination with anti-CTLA-4 antibody; 22 days of treatment; FIG. 1
Experimental: The effects of Compound A in combination with checkpoint inhibitors were investigated in an orthotopic HCC model. The orthotopic HCC model was established by injecting about 2×10^5 murine liver cancer cell line (BNL-1MEA) cells into the sub-capsular area of the left liver lobe of male BALB/c or SCID mice at age of 6-7 weeks. Mice were randomized to different treatment groups on day 6 after tumor implantation. Tumor volumes were measured after 22 days of treatment with Compound A alone, the checkpoint inhibitor alone, and Compound A in combination with the checkpoint inhibitor by using the following formula: volume [mm^3]=[width]^2×length×0.5. Tumor tissues were cut into small pieces, followed by incubation with HBSS containing collagenase type I (0.05 mg/ml), collagenase type IV (0.05 mg/ml), hyaluronidase (0.025 mg/ml), DNase (0.01 mg/ml) and soybean trypsin inhibitor (1 mg/ml) (all from Sigma-Aldrich) for 15 minutes. TILs were recovered by using Ficoll-Paque gradient and subjected to lymphocyte subpopulations analysis by flow cytometry (FACScan Caliber, Becton Dickinson; data processed by using the […] Software, BD Biosciences Pharmingen). CD4+ T cells, CD8+ T cells, NK cells, or NKT cells were determined by double staining with specific antibodies recognizing murine CD3 (clone 145-2C11), CD4 (cone GK1.5), CD8 (clone 53-6.7), or Pan-NK (clone DX5)(BD Biosciences Pharmingen). […]

[7] = tested on: acute myeloid leukemia (AML) at relapse; details: administered alone; cited from earlier work
advanced melanoma = details: patients with advanced melanoma; Hodi et al. 2010; cited from earlier work
[8] = tested on: DLBCL, FL and T-cell lymphomas; details: monotherapy; cited from earlier work
[9] = Compound A 0.01-1 μM for 24 h, compared to vehicle treated cells, P<0.01
[10] = synapse with PD-L1+ tumor cells

Cc1nc2cccc(N)c2c(=O)n1C1CCC(=O)NC1=O (centres unmarked) [Compound A, 3-(5-amino-2-methyl-4-oxo-4H-quinazolin-3-yl)-piperidine-2,6-dione]
proliferation in NK cells (absolute cell numbers) ([1]; FIG. 5A): enhanced proliferation | proliferation in NKT cells (absolute cell numbers) ([1]; FIG. 5B): enhanced proliferation | proliferation in CD4+ T-cells (absolute cell numbers) ([1]; FIG. 5C): but not CD4+ T-cells | proliferation in CD8+ T-cells (absolute cell numbers) ([1]; FIG. 5D): enhanced proliferation | formation of F-actin immune synapses (area size) [2, 9]: increased | number of T cells recognizing tumor cells (% conjugation formation) [2, 9]: dramatically enhanced | T cell synapse activity compared to immunotherapy alone ([2]; Compound A with anti-CTLA-4 blocking antibody, FIG. 7A): increased T cell synapse activity | T cell synapse activity compared to immunotherapy alone ([2]; Compound A with anti-PD-1 blocking antibody, FIG. 7B): increased T cell synapse activity | T cell synapse activity compared to immunotherapy alone ([2]; Compound A with anti-PD-L1 blocking antibody, FIG. 7C): increased T cell synapse activity | synapse strength (total fluorescence intensity of F-actin per T cell:APC conjugate) ([2]; P<0.01): increased significantly | recruitment of inducible co-stimulator (ICOS) to the synapse ([2]; dose-dependent, P<0.01): increased recruitment | polarized expression of CTLA-4 at the synapse [2, 10]: increased polarized expression | polarized expression of PD-1 at the synapse [2, 10]: increased polarized expression | PBMC-mediated cell killing of HCC cell line JHH4 ([3]; 50 nM Compound A combined with 1 μg/ml anti-PD-L1): significantly enhanced | PBMC-mediated cell killing of HCC cell line JHH4 ([3]; 50 nM Compound A combined with 1-10 μg/ml nivolumab): significantly enhanced | IL-2 secretion compared to either single agent (SEB-stimulated PBMC; 40 nM Compound A with anti-PD-1 blocking antibody, synergy above 1 μg/ml anti-PD-1, FIG. 2E): synergistic IL-2 secretion | IL-2 secretion compared to either single agent (SEB-stimulated PBMC; 40 nM Compound A with anti-PD-L1 blocking antibody, synergy above 10 μg/ml anti-PD-L1, FIG. 2F): synergistic IL-2 secretion | IL-2 secretion compared to either single agent (SEB-stimulated PBMC; 40 nM Compound A with nivolumab, synergy between 0.1-100 μg/ml nivolumab, FIG. 2D): synergistic IL-2 secretion | IL-2 secretion (SEB-stimulated PBMC; Compound A pretreatment 1 hour, then SEB/CPI (nivolumab, anti-PD-1 or anti-PD-L1) for 5 days, FIG. 2A-2C): synergistically enhanced IL-2 secretion | IL-1β inhibition [4]: potently inhibits | IL-10 stimulation [4]: stimulates | TNF-α inhibition [4]: markedly inhibits | IL-2 secretion ([5]; Compound A (10 nM, 100 nM) in combination with nivolumab, ELISA at 48 hours, FIG. 3A, 3B): enhanced | IFNγ secretion ([5]; Compound A (100 nM) in combination with nivolumab, 5 days, FIG. 4A): enhanced | IL-2 secretion compared to either single agent ([5]; Compound A with anti-PD-L1, synergy at 1-10 μg/ml anti-PD-L1, FIG. 3D): synergistic IL-2 secretion | IFNγ secretion ([5]; Compound A with anti-PD-L1 between 0.1-10 μg/ml, 5 days of co-culture, FIG. 4C): increased synergistically | IFNγ secretion ([5]; Compound A with nivolumab between 0.1-10 μg/ml, 5 days of co-culture, FIG. 4B): increased synergistically | IL-2 secretion compared to either single agent ([5]; Compound A with nivolumab, synergy between 0.01-10 μg/ml nivolumab, FIG. 3C): synergistic IL-2 secretion | anti-tumor efficacy in term of tumor volume [6]: significant synergistic anti-tumor efficacy

CT-011: anti-PD-1 antibody, a humanized antibody
response in treating AML at relapse [7]: failed to show response

ipilimumab: fully human monoclonal IgG antibody that binds to CTLA-4
overall survival (advanced melanoma): overall survival benefit

nivolumab: human IgG4 anti-PD-1 monoclonal antibody
antitumor activity [8]: has shown antitumor activity
